Measurements: the kinase profiling compilation of Christmann-Franck et al. (2016)

What was measured:
Assay in all cases: radiometric filter-binding kinase assay
TESK1 (human) = TESK1 (human) (UniProt Q15569)
[1] = system: OXSR1 (human), O95747 [T185E]
[2] = system: TGFBR1 (human), P36897 [T204D]
SIK2 (human) = SIK2 (human) (UniProt Q9H0K1)
ULK1 (human) = ULK1 (human) (UniProt O75385)
AURKB (human) = AURKB (human) (UniProt Q96GD4)
CSNK1G2 (human) = CSNK1G2 (human) (UniProt P78368)
ULK2 (human) = ULK2 (human) (UniProt Q8IYT8)
DDR2 (human) = DDR2 (human) (UniProt Q16832)
[3] = target: PRKAA1 PRKAB2 PRKAG1 (human) (UniProt O43741+Q13131+P54619)
WNK1 (human) = WNK1 (human) (UniProt Q9H4A3)
PTK6 (human) = PTK6 (human) (UniProt Q13882)
TSSK1B (human) = TSSK1B (human) (UniProt Q9BXA7)
TEK (human) = TEK (human) (UniProt Q02763)
MAP4K3 (human) = MAP4K3 (human) (UniProt Q8IVH8)
PDGFRA (human) = PDGFRA (human) (UniProt P16234)
TTBK1 (human) = TTBK1 (human) (UniProt Q5TCY1)
SIK3 (human) = SIK3 (human) (UniProt Q9Y2K2)
PHKG1 (human) = PHKG1 (human) (UniProt Q16816)
STK24 (human) = STK24 (human) (UniProt Q9Y6E0)
CDK9 CCNT1 (human) = CDK9 CCNT1 (human) (UniProt P50750+O60563)
MAP4K5 (human) = MAP4K5 (human) (UniProt Q9Y4K4)
PRKCG (human) = PRKCG (human) (UniProt P05129)
TLK1 (human) = TLK1 (human) (UniProt Q9UKI8)
ZAP70 (human) = ZAP70 (human) (UniProt P43403)
STK33 (human) = STK33 (human) (UniProt Q9BYT3)
IRAK1 (human) = IRAK1 (human) (UniProt P51617)
STK16 (human) = STK16 (human) (UniProt O75716)
TTBK2 (human) = TTBK2 (human) (UniProt Q6IQ55)
ABL1 (human) = ABL1 (human) (UniProt P00519)
MAPK7 (human) = MAPK7 (human) (UniProt Q13164)
EIF2AK3 (human) = EIF2AK3 (human) (UniProt Q9NZJ5)

PRKAA1 PRKAB2 PRKAG1 (human), sequence (O43741 whole entry, looked up): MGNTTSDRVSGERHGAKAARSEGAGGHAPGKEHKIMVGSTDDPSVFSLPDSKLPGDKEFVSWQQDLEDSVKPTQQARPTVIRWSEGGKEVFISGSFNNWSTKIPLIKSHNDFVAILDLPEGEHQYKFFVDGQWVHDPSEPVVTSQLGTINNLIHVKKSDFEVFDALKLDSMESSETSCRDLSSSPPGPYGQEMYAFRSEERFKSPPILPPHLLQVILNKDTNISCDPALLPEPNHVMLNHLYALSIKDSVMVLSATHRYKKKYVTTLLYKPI
PRKAA1 PRKAB2 PRKAG1 (human), sequence (P54619 whole entry, looked up): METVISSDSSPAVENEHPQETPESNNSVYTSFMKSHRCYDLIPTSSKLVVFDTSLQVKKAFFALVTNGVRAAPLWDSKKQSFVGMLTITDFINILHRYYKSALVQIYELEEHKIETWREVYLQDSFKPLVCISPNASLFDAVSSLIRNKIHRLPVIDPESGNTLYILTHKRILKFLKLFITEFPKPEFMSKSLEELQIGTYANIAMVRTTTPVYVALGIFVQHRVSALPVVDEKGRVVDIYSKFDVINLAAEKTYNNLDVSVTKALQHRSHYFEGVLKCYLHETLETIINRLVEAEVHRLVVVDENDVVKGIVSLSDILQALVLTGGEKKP
PRKAA1 PRKAB2 PRKAG1 (human), sequence (Q13131 whole entry, looked up): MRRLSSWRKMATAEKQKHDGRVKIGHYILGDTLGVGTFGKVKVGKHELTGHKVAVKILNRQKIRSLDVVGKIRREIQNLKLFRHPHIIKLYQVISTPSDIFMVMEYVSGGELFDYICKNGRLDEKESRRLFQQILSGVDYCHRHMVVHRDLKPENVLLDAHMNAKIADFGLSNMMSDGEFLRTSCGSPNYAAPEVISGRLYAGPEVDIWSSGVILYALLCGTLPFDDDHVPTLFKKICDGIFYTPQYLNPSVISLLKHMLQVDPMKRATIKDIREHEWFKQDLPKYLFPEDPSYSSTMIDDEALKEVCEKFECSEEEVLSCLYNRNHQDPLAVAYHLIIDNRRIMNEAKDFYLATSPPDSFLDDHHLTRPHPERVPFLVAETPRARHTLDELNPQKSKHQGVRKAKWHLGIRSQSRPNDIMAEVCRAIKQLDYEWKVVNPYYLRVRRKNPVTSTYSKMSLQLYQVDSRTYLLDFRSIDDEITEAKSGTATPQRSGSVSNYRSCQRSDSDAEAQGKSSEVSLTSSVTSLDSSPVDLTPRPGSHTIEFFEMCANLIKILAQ
TTBK1 (human), sequence (Q5TCY1 whole entry, looked up): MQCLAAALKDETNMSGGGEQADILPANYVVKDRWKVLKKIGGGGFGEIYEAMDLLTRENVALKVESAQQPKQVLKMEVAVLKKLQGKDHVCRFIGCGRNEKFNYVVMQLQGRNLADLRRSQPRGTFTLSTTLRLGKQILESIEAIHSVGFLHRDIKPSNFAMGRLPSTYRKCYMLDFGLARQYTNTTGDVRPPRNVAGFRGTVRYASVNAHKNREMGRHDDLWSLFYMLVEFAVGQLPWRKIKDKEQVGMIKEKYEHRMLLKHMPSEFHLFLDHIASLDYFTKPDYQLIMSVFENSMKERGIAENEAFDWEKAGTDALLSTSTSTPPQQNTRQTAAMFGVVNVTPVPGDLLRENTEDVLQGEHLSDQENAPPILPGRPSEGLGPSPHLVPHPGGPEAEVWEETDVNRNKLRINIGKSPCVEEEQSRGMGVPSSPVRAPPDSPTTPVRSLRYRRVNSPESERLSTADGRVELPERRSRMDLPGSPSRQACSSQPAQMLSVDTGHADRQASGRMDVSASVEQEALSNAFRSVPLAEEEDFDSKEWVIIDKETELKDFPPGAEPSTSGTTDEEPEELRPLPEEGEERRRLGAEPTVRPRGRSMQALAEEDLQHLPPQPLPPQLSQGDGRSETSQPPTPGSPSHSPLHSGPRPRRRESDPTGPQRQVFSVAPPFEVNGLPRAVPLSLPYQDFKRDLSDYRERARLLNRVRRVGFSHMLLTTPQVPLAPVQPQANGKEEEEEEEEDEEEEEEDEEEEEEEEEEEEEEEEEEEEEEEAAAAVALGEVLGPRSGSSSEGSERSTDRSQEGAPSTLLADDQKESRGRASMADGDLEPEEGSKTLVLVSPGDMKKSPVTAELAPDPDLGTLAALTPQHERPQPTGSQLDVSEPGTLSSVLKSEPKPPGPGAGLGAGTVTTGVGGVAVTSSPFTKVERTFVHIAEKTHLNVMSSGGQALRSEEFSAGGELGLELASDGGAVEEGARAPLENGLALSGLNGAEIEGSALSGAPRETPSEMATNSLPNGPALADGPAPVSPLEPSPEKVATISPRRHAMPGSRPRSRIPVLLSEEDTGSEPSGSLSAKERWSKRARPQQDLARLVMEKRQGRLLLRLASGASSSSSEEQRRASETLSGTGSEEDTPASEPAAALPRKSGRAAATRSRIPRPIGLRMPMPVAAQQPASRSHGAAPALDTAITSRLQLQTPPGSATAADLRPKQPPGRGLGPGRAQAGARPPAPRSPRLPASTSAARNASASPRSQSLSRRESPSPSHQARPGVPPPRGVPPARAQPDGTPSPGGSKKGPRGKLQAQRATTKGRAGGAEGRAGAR
STK33 (human), sequence (Q9BYT3 whole entry, looked up): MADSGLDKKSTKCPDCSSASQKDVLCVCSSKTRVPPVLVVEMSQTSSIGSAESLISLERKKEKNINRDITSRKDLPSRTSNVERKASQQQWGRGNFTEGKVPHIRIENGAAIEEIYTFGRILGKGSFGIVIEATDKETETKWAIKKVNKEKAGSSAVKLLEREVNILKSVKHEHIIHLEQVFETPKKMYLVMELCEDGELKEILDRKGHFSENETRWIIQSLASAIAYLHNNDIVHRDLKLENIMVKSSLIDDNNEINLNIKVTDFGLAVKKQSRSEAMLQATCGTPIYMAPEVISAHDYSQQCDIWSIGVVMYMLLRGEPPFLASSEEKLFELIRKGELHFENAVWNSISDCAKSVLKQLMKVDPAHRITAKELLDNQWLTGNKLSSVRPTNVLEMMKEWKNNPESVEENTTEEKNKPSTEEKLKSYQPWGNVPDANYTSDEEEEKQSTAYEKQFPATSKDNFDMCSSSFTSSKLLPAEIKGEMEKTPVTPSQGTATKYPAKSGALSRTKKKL
TESK1 (human), sequence (Q15569 whole entry, looked up): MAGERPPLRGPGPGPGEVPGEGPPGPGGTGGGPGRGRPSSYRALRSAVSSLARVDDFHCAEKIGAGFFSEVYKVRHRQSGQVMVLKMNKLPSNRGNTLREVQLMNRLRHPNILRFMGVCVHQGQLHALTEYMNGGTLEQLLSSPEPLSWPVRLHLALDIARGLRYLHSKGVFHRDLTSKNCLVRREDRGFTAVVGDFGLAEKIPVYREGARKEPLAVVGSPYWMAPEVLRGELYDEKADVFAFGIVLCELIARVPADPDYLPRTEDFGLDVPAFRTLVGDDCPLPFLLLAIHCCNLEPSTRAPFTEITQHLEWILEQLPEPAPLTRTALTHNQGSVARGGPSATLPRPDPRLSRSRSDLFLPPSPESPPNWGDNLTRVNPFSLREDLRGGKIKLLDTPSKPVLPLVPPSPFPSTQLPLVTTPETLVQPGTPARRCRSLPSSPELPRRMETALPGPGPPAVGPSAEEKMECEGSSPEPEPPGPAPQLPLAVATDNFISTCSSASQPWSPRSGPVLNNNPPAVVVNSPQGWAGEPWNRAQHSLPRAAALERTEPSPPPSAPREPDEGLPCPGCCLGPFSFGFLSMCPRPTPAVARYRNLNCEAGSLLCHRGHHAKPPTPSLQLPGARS
IRAK1 (human), sequence (P51617 whole entry, looked up): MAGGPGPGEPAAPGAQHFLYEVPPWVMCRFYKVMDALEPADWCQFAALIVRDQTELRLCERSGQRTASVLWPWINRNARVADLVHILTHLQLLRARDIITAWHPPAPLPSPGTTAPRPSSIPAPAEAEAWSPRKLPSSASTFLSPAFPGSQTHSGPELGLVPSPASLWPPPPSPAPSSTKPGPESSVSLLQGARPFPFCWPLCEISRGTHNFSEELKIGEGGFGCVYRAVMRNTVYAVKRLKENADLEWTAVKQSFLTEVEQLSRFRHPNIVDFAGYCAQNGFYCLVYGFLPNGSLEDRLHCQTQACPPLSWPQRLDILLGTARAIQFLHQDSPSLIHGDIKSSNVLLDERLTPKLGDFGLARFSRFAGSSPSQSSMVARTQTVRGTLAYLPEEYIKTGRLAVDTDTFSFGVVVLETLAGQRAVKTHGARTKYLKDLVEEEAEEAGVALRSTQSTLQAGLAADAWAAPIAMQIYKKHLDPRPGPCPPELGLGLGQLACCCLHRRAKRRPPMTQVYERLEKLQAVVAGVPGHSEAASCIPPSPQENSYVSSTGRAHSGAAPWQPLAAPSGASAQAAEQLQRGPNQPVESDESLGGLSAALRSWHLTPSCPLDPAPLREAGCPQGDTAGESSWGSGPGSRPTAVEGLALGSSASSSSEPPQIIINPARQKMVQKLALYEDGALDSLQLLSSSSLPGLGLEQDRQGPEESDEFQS
OXSR1 (human), O95747 [T185E], sequence (O95747 whole entry T185E, looked up): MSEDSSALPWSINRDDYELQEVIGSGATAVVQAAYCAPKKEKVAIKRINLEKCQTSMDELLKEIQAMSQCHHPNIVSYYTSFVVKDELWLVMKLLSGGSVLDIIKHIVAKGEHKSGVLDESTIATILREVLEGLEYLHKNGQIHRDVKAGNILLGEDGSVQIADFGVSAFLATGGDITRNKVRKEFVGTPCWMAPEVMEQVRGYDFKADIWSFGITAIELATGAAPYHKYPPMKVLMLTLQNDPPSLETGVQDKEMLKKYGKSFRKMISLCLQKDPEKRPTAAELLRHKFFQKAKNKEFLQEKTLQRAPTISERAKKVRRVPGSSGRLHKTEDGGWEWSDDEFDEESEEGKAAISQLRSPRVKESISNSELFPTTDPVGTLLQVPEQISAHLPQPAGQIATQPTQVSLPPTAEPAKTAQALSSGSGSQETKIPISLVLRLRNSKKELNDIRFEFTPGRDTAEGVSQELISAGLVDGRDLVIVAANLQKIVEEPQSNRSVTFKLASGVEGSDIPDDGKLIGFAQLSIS

CNC(=O)C1[C@H]2O[C@@](C)([C@@H]1N)n1c3ccccc3c3c4c(c5c6ccccc6n2c5c31)C(=O)NC4 (stereo partly drawn)
residual activity (TESK1 (human); compound 0.01 µM): 76% | residual activity (TESK1 (human); compound 0.1 µM): 19% | residual activity (TESK1 (human); compound 1.0 µM): 2% | residual activity ([1]; compound 0.01 µM): 75% | residual activity ([1]; compound 0.1 µM): 23% | residual activity ([1]; compound 1.0 µM): 7% | residual activity ([2]; compound 0.01 µM): 96% | residual activity ([2]; compound 0.1 µM): 74% | residual activity ([2]; compound 1.0 µM): 17% | residual activity (SIK2 (human); compound 0.01 µM): 4% | residual activity (SIK2 (human); compound 0.1 µM): 0% | residual activity (SIK2 (human); compound 1.0 µM): 1% | residual activity (ULK1 (human); compound 0.01 µM): 102% | residual activity (ULK1 (human); compound 0.1 µM): 43% | residual activity (ULK1 (human); compound 1.0 µM): 11% | residual activity (AURKB (human); compound 0.01 µM): 49% | residual activity (AURKB (human); compound 0.1 µM): 46% | residual activity (AURKB (human); compound 1.0 µM): 39% | residual activity (CSNK1G2 (human); compound 0.01 µM): 106% | residual activity (CSNK1G2 (human); compound 0.1 µM): 97% | residual activity (CSNK1G2 (human); compound 1.0 µM): 86% | residual activity (ULK2 (human); compound 0.01 µM): 30% | residual activity (ULK2 (human); compound 0.1 µM): 5% | residual activity (ULK2 (human); compound 1.0 µM): 1% | residual activity (DDR2 (human); compound 0.1 µM): 8% | residual activity (DDR2 (human); compound 1.0 µM): 3% | residual activity ([3]; compound 0.01 µM): 4% | residual activity ([3]; compound 0.1 µM): 3% | residual activity ([3]; compound 1.0 µM): 1% | residual activity (WNK1 (human); compound 0.1 µM): 91% | residual activity (WNK1 (human); compound 1.0 µM): 86% | residual activity (PTK6 (human); compound 0.01 µM): 28% | residual activity (PTK6 (human); compound 0.1 µM): 16% | residual activity (PTK6 (human); compound 1.0 µM): 4% | residual activity (TSSK1B (human); compound 0.01 µM): 13% | residual activity (TSSK1B (human); compound 0.1 µM): 5% | residual activity (TSSK1B (human); compound 1.0 µM): 4% | residual activity (TEK (human); compound 0.01 µM): 59% | residual activity (TEK (human); compound 0.1 µM): 41% | residual activity (TEK (human); compound 1.0 µM): 20% | residual activity (MAP4K3 (human); compound 0.01 µM): 3% | residual activity (MAP4K3 (human); compound 0.1 µM): 2% | residual activity (MAP4K3 (human); compound 1.0 µM): 1% | residual activity (PDGFRA (human); compound 0.01 µM): 54% | residual activity (PDGFRA (human); compound 0.1 µM): 8% | residual activity (PDGFRA (human); compound 1.0 µM): 2% | residual activity (TTBK1 (human); compound 0.01 µM): 101% | residual activity (TTBK1 (human); compound 0.1 µM): 108% | residual activity (TTBK1 (human); compound 1.0 µM): 99% | residual activity (SIK3 (human); compound 0.01 µM): 31% | residual activity (SIK3 (human); compound 0.1 µM): 7% | residual activity (SIK3 (human); compound 1.0 µM): 2% | residual activity (PHKG1 (human); compound 0.1 µM): 1% | residual activity (PHKG1 (human); compound 1.0 µM): 1% | residual activity (STK24 (human); compound 0.01 µM): 97% | residual activity (STK24 (human); compound 0.1 µM): 50% | residual activity (STK24 (human); compound 1.0 µM): 6% | residual activity (CDK9 CCNT1 (human); compound 0.01 µM): 61% | residual activity (CDK9 CCNT1 (human); compound 0.1 µM): 17% | residual activity (CDK9 CCNT1 (human); compound 1.0 µM): 15% | residual activity (MAP4K5 (human); compound 0.01 µM): 10% | residual activity (MAP4K5 (human); compound 0.1 µM): 7% | residual activity (MAP4K5 (human); compound 1.0 µM): 4% | residual activity (PRKCG (human); compound 0.01 µM): 95% | residual activity (PRKCG (human); compound 0.1 µM): 51% | residual activity (PRKCG (human); compound 1.0 µM): 13% | residual activity (TLK1 (human); compound 0.01 µM): 93% | residual activity (TLK1 (human); compound 0.1 µM): 39% | residual activity (TLK1 (human); compound 1.0 µM): 6% | residual activity (ZAP70 (human); compound 0.01 µM): 83% | residual activity (ZAP70 (human); compound 0.1 µM): 16% | residual activity (ZAP70 (human); compound 1.0 µM): 2% | residual activity (STK33 (human); compound 0.01 µM): 44% | residual activity (STK33 (human); compound 0.1 µM): 27% | residual activity (STK33 (human); compound 1.0 µM): 23% | residual activity (IRAK1 (human); compound 0.01 µM): 15% | residual activity (IRAK1 (human); compound 0.1 µM): 2% | residual activity (IRAK1 (human); compound 1.0 µM): 3% | residual activity (STK16 (human); compound 0.01 µM): 102% | residual activity (STK16 (human); compound 0.1 µM): 85% | residual activity (STK16 (human); compound 1.0 µM): 69% | residual activity (TTBK2 (human); compound 0.01 µM): 107% | residual activity (TTBK2 (human); compound 0.1 µM): 102% | residual activity (TTBK2 (human); compound 1.0 µM): 90% | residual activity (ABL1 (human); compound 0.01 µM): 98% | residual activity (ABL1 (human); compound 0.1 µM): 82% | residual activity (ABL1 (human); compound 1.0 µM): 37% | residual activity (MAPK7 (human); compound 0.01 µM): 66% | residual activity (MAPK7 (human); compound 0.1 µM): 24% | residual activity (MAPK7 (human); compound 1.0 µM): 12% | residual activity (EIF2AK3 (human); compound 0.01 µM): 62% | residual activity (EIF2AK3 (human); compound 0.1 µM): 59% | residual activity (EIF2AK3 (human); compound 1.0 µM): 36%
